“Also recorded” adds a separate entry of the source. Counter-ions that a name gives are not always drawn.
Legend:
S. cerevisiae = type: cell-based; conditions: for lifespan of yeast cells (Replicator validation): 10 μM, supplied to young yeast cells throughout lifespan, vs untreated control
Method: To obtain the single-cell level data for the age and generation-durations of replicatively aging mother cells, data reported in Liu, P., et al., Cell Rep. 634-644 (2015) was re-analyzed. The data was collected in the same media condition (CSM 2% glucose) as reported elsewhere herein. Cells were grown for ˜24 hours in CSM 2% glucose prior to loading to the microfluidic device. Once cells were loaded, media was swapped to provide CSM 2% glucose control media (untreated), media containing DMSO as a vehicle control (American Bio AB00435), media containing 10 μM terreic acid (Sigma SML0480), media containing 10 μM mycophenolic acid (Sigma M5255), or media containing another compound at the indicated concentration. An automated microscope was used to track […], and replicative lifespan was later determined by counting the number of daughters produced before death. In the case of compound validation, only newborn cells were included in the lifespan experiment. To compare the replicative lifespan of labeled and unlabeled cells, only cells that were present within the traps at the start of the experiment were included. For these experiments, cells were loaded to the microfluidic device at an increased rate of 100 μL/min to increase the number of trapped mother cells. Green fluorescent images were also taken at the start of the experiment to confirm that the cells were visibly labeled.
Differences in lifespan characteristics were assessed through Log-Rank test using MATLAB with a cut-off value of P=0.05. The script for Log-Rank test was downloaded from MATLAB. Differences in proteasome activity were assessed using the unpaired, two-tailed, parametric t-test function of the GraphPad Prism software.
The Longevity Placement Test (LPT) was designed as a mutually exclusive, collectively exhaustive test to determine the relationship of a longevity intervention to a known genetic regulator of lifespan. For a given intervention that extends lifespan, any of three possible relationships may exist relative to a known genetic regulator of lifespan. (1) The intervention may act to extend lifespan independently from the known regulator. (2) The […] may act downstream from the known regulator, converging on a single component of the known regulator's lifespan pathway. (3) The intervention may act upstream from or upon the known regulator, ultimately modulating lifespan through the genetic regulator.
In Step 1 of the LPT, the longevity intervention is applied to a strain in which a genetic regulator of lifespan is deleted. In the event that lifespan extension from the longevity intervention is observed in this background, only possibilities (1) and (2) above remain valid (FIG. 7B). If no lifespan extension is observed, then possibilities (2) and (3) remain valid. Possibility (2) cannot be ruled out in this step, since non-saturating action by the genetic regulator could leave room for lifespan extension by the longevity intervention, while saturating action would preclude it.
In Step 2 of the LPT, an epistatic agent, which prevents lifespan extension from the longevity agent, is applied to a strain in which some upstream member of the genetic regulator's lifespan pathway has been modified to extend lifespan. This step differentiates possibility (2) from the remaining possibility after Step 1. In the event that lifespan extension from the genetic regulator's pathway is suppressed by the epistatic agent, this determines that possibility (2) is correct. In the event that no epistasis is observed, the remaining possibility, (1) or (3), is correct (FIG. 7C).

Saccharomyces cerevisiae = experiment: High-Life (High throughput replicative Lifespan measurement) flow cytometry assay in MEP yeast; type: cell-based; conditions: for lifespan extending properties (High-Life): testing conditions identical to Example 3 (10 μM, 24 hours); for average High-Life readings (progenitor fraction viable vs CF405M intensity) relative to controls: 10 μM, 24 hours in culture, 3-4 replicate wells, repeat of screen hits
Method: Cells were labeled with NHS-fluorescein as described above, then diluted to 20 cells/μL in media. 80 μL/well was aliquoted to 384-well plates, which were covered with a breathable membrane and placed on a shaker platform in a humidified incubator. After 3 hours, the plates were removed from the incubator and each well was treated with 20 μL pre-warmed, 30° C. 5 μM β-estradiol in media. In the case of ibuprofen or compound-treated wells, the compound was diluted in this volume at a 5× concentration to achieve a final concentration of 10 μM, or 100 μM for ibuprofen. The plates were then returned to the incubator. At indicated times, one plate was removed from the incubator and placed on an autosampler cooled to 8° C. attached to a Stratedigm flow cytometer. The cytometer was set to automatically add and mix 20 μL of aqueous solution containing 60 μg/mL CF405M-WGA (Biotium 29028) and propidium iodide (Sigma P4864) prior to acquiring 80 μL of sample for each well.
In order to test the lifespan of model organisms on both a large-scale and with quick turn-around, a massively multiplexed method was developed to measure replicative lifespan in the short-lived model organisms Saccharomyces cerevisiae. The protocol uses green-fluorescent labeling to identify progenitor cells, red-fluorescent labeling to differentiate non-viable cells, and blue-fluorescent labeling of bud scars to determine replicative age (FIG. 1). Each parameter is measured using a flow cytometer.
To achieve high throughput, the measurement system was automated, and the assay was performed in 384-well plates. The assay was performed using an autosampler-equipped flow cytometer, in a volume of 100 μL. Growth of even a single cell and its progeny in such a small volume will result in nutrient starvation before the natural replicative lifespan is exhausted; therefore to circumvent this issue, High-Life experiments were performed in the background of the Mother Enrichment Program (MEP) (Lindstrom and Gottschling, Genetics. 2009 October; 183(2):413-22). MEP strains express a CRE recombinase fused to an estrogen-binding domain for only a short time after birth. In the presence of β-estradiol, the recombinase translocates to the nucleus where it can excise two essential genes that have been modified to contain the exogenous LoxP sequence. Addition of β-estradiol to the media thus renders newborn daughters inviable without affecting existing mother cells, preventing exponential growth of the cell population and nutrient depletion (FIG. 2A).
The High-Life method was then tested to determine if it was suitable to screening for compounds that extend replicative lifespan. […] The effect of these compounds on High-Life readings was assayed after 24 hours in culture at 10 μM concentration. As a positive control, ibuprofen was used.

Nc1nc(=O)c2c([nH]1)NCC(CNc1ccc(C(=O)N[C@@H](CCC(=O)O)C(=O)O)cc1)N2C=O (mixture of isomers) [folinic acid]
suppression of the longevity effect of proguanil (S. cerevisiae; 10 μg/mL folinic acid with 10 μM proguanil, Replicator device): able to suppress the longevity effect of proguanil

COc1c(C)c2c(c(O)c1CC1CC1(C)CCC(=O)O)C(=O)OC2 (stereo not drawn) [3-(2-((4-Hydroxy-6-methoxy-7-methyl-3-oxo-1,3-dihydroisobenzofuran-5-yl)methyl)-1-methylcyclopropyl)propanoic acid]
lifespan extending properties (High-Life) (Saccharomyces cerevisiae): measurable lifespan extension in initial tests
lifespan extending properties (High-Life) (Saccharomyces cerevisiae; listed as 3-(2-((4-Hydroxy-6-methoxy-7-methyl-2-oxo-1,3-dihydroisobenzofuran-5-yl)methyl)-): at least some lifespan extending properties

COc1c(C)c2c(c(O)c1C/C=C(\C)CCC(=O)NCc1ccncc1)C(=O)OC2 [(E)-6-(4-hydroxy-6-methoxy-7-methyl-3-oxo-1,3-dihydroisobenzofuran-5-yl)-4-methyl-N-(pyridin-4-ylmethyl)hex-4-enamide]
lifespan extending properties (High-Life) (Saccharomyces cerevisiae): at least some lifespan extending properties; also recorded: measurable lifespan extension in initial tests

Cn1cnc([N+](=O)[O-])c1Sc1ncnc2nc[nH]c12 [Azathioprine]
lifespan extending properties (High-Life) (Saccharomyces cerevisiae): at least some lifespan extending properties

CN(C)CCCN1c2ccccc2Sc2ccc(Cl)cc21 [Chlorpromazine]
lifespan extending properties (High-Life) (Saccharomyces cerevisiae): at least some lifespan extending properties

Cc1oncc1C(=O)Nc1ccc(C(F)(F)F)cc1 [Leflunomide]
lifespan extending properties (High-Life) (Saccharomyces cerevisiae): at least some lifespan extending properties

CN(Cc1cnc2nc(N)nc(N)c2n1)c1ccc(C(=O)N[C@@H](CCC(=O)O)C(=O)O)cc1 [Methotrexate]
lifespan extending properties (High-Life) (Saccharomyces cerevisiae): at least some lifespan extending properties

NC(=O)c1ncn([C@@H]2O[C@H](CO)[C@@H](O)[C@H]2O)c1O [Mizoribine]
lifespan extending properties (High-Life) (Saccharomyces cerevisiae): at least some lifespan extending properties

Nc1nc2[nH]cc(CCc3ccc(C(=O)N[C@@H](CCC(=O)O)C(=O)O)cc3)c2c(=O)[nH]1 [Pemetrexed]
lifespan extending properties (High-Life) (Saccharomyces cerevisiae): at least some lifespan extending properties

N=C(N)c1ccc(OCCCCCOc2ccc(C(=N)N)cc2)cc1 [Pentamidine]
lifespan extending properties (High-Life) (Saccharomyces cerevisiae): at least some lifespan extending properties

CCN(CC)CCCC(C)Nc1c2ccc(Cl)cc2nc2ccc(OC)cc12 (stereo not drawn) [Quinacrine]
lifespan extending properties (High-Life) (Saccharomyces cerevisiae): at least some lifespan extending properties

Cc1cc(NS(=O)(=O)c2ccc(N)cc2)no1 [Sulfamethoxazole]
lifespan extending properties (High-Life) (Saccharomyces cerevisiae): at least some lifespan extending properties

COc1cc(Cc2cnc(N)nc2N)cc(OC)c1OC [Trimethoprim]
lifespan extending properties (High-Life) (Saccharomyces cerevisiae): at least some lifespan extending properties

N.N.[Cl][Pt][Cl] [cisplatin]
average High-Life readings (progenitor fraction viable vs CF405M intensity) relative to controls (Saccharomyces cerevisiae): at least slightly above controls

O=C(O)c1cc(=O)c2c(OCC(O)COc3cccc4oc(C(=O)O)cc(=O)c34)cccc2o1 [cromolyn sodium]
average High-Life readings (progenitor fraction viable vs CF405M intensity) relative to controls (Saccharomyces cerevisiae): at least slightly above controls

CN1CCc2cccc3c2[C@H]1Cc1ccc(O)c(O)c1-3 [e hydrochloride]
average High-Life readings (progenitor fraction viable vs CF405M intensity) relative to controls (Saccharomyces cerevisiae): at least slightly above controls

N=C(N)N/N=C/c1c(Cl)cccc1Cl [guanabenz acetate]
average High-Life readings (progenitor fraction viable vs CF405M intensity) relative to controls (Saccharomyces cerevisiae): at least slightly above controls
lifespan of yeast cells (Replicator validation) (S. cerevisiae): extend the lifespan

CC(C)Cc1ccc(C(C)C(=O)O)cc1 (stereo not drawn) [ibuprofen]
replicative lifespan (High-Life) (Saccharomyces cerevisiae; 100 μM ibuprofen vs untreated, multiple time points 0-48 h): increase in replicative lifespan was observed

Cc1ccc(Cl)c(Nc2ccccc2C(=O)O)c1Cl [meclofenamate sodium]
average High-Life readings (progenitor fraction viable vs CF405M intensity) relative to controls (Saccharomyces cerevisiae): at least slightly above controls

O=[N+]([O-])c1ccc(O)c2ncccc12 [nitroxoline, 8-hydroxy-5-nitroquinoline]
average High-Life readings (progenitor fraction viable vs CF405M intensity) relative to controls (Saccharomyces cerevisiae): at least slightly above controls
toxicity in Replicator RLS experiment (S. cerevisiae; 10 μM compound): toxic and caused most cells to arrest immediately

[H]/N=C(\N/C(=N/[H])Nc1ccc(Cl)cc1)NC(C)C [proguanil hydrochloride]
average High-Life readings (progenitor fraction viable vs CF405M intensity) relative to controls (Saccharomyces cerevisiae): at least slightly above controls
lifespan of yeast cells (Replicator validation) (S. cerevisiae): extend the lifespan

Cn1c([N+](=O)[O-])cnc1COC(N)=O [ronidazole]
average High-Life readings (progenitor fraction viable vs CF405M intensity) relative to controls (Saccharomyces cerevisiae): at least slightly above controls

CC(=O)OCC(=O)NCCCOc1cccc(CN2CCCCC2)c1 [roxatidine acetate hydrochloride]
average High-Life readings (progenitor fraction viable vs CF405M intensity) relative to controls (Saccharomyces cerevisiae): at least slightly above controls

Reference: patent US20200108043A1, “COMPOUNDS AND COMPOSITIONS FOR EXTENDING LIFESPAN OF A SUBJECT” (YALE UNIVERSITY, priority 2017, published 2020)
